Earlier results as cited in patent US8557836B2 (priority 2008, dated 2013).

System: M2 ion channel with mutations at M2 residues 27, 30, 31, and 34
Details: mutations at M2 residues 27, 30, 31, and 34 in the M2 transmembrane domain; cited from earlier work

In the case of `C1CCC2(CC1)CCN(C1=NCCN1)CC2` [BL-1743, 3-(4,5-dihydro-1H-imidazol-2-yl)-3-azaspiro[5,5]undecane hydroiodide, reference compound], the “resistance to BL-1743 induced by amantadine resistance mutations” value is given as “complete”.
